Measurements: US20130261132A1, “CALCIUM-SENSING RECEPTOR-ACTIVE COMPOUNDS” (LEO PHARMA A/S, priority 2010, published 2013)

Legend:
[1] = Clearance in human liver microsomes; format: in vitro ADME; conditions: hepatic extraction ratio; test compound 0.5 μM, microsomes 0.5 mg/mL, NADPH 1 mM, 37° C.
Protocol: Test compound concentration is 0.5 μM, microsome concentration is 0.5 mg/mL and NADPH concentration is 1 mM in the incubation. The described method is performed by the liquid handling system Tecan RSP and is based on a 96-well format.
Control incubations with test compound without NADPH and test compound without microsomes are conducted to investigate non-CYP mediated metabolism and stability in phosphate buffer at 37° C., respectively.
The human liver microsomal suspension in phosphate buffer is mixed with NADPH. The mixture is pre-heated (7 min) to 37° C. Test compound is added, and the mixture is incubated for 30 minutes. Incubations are run in duplicate. Samples are withdrawn at predetermined stop times and mixed with methanol containing internal standard (IS) to terminate all enzyme activity and precipitate proteins. A control without NADPH (to detect problems such as nonspecific protein binding, heat instability or non-CYP mediated metabolism) and a control without microsomes (for assessing compound stability in the absence of any active enzymes) are tested.
(§1) The percentage of organic solvent in the incubations is less than 1%. Careful inspections of reagents are performed prior to the start of any experiment to ensure all reagents are in solution.
(§2) The 96-well plates are centrifuged. Test compound depletion, using a compound specific LC/MS/MS method, is determined.
The logarithm of the peak area ratios of test compound to internal standard (IS) versus incubation time is plotted in a graph.
The rate constant (k) (min^−1) of test compound depletion is calculated from the linear part of the curve and the half-time (t1/2) in minutes can be calculated from the rate constant (Eq. 2).
Intrinsic clearance (CIint) (mL/min/mg protein) is calculated from: […]
where c is the microsomal protein concentration in mg/mL.
Conversion to apparent clearance (CIapp) (mL/min/kg) is done by Eq. 4:
CIapp=CIint×a×b/d (Eq. 4)
where a, b and d are the scaling factors for normalizing CIint to human body weight.
a: 45 (microsomal protein/liver weight (mg/g))
b: 1500 (liver weight (g))
Hepatic clearance (CIh) (mL/min/kg) based on the well-stirred model is described as followed:
CIh=(CIapp·Q)/(CIapp+Q) (Eq. 5)
where Q is the liver blood flow in mL/min/kg (20 in humans).
Dividing hepatic clearance with liver blood flow, the hepatic extraction ratio (%) can be calculated:
(§3) Apparent clearance below approximately 10 mL/min/kg human body weight (corresponding to extraction ratio of approx. 33%) is considered as low clearance (high metabolic stability). Apparent intrinsic clearance above approximately 60 mL/min/kg human body weight (corresponding to extraction ratio of approx. 75%) is considered as high clearance (low metabolic stability).

[2] = Clearance in rat hepatocytes; format: in vitro ADME; conditions: hepatic extraction ratio; test compound 0.5 μM, 1×10^6 cells/mL, 37° C.
Protocol: Test compounds and 4 control compounds are tested in duplicate per run. Test compound concentration is 0.5 μM and cell concentration is 1×10^6 cells/mL in the incubation. The described method is performed by the liquid handling system Tecan RSP and is based on a 96-well format.
The liver is collected from a male Spraque-Dawley rat. One liver lobe is cut off and flushed with various buffers to loosen the cells. The cell suspension is washed and centrifuged, and the cell density is adjusted to 1.2×10^6 cells/mL with Krebs-Henseleit buffer, pH 7.4, containing 0.2% bovine serum albumin (BSA). Only cell suspensions with viability above 80% are used.
The cell suspension is pre-heated (20 min) to 37° C. Test compound is added, and the mixture is incubated for 20 minutes. Incubations are run in duplicate. Samples are withdrawn at predetermined stop times and mixed with methanol containing internal standard (IS) to terminate all enzyme activity and precipitate proteins.
as §1, §2
Data analysis is performed as described above in the section “Biological assay for analysis of clearance in human liver microsomes”, with the following modifications: Intrinsic clearance (CIint) (mL/min/10^6 cells) is calculated from: […]
where c is the cell concentration in 10^6 cells/mL.
The following scaling factors for rat are used for eq. 4:
a: 120 (cells/liver weight (10^6 cells/g))
d: 0.25 (body weight (kg))
Liver blood flow in rats (for eq. 5):
as §3, with “25” for “10”, “rat” for “human”, “to an” for “to”, “165” for “60”

Clearance (% Eh) in human liver microsomes [1]	Clearance (% Eh) in rat hepatocytes [2]	Structure (SMILES)
A (A: Eh < 33%)	B (B: 33% ≦ Eh ≦ 75%)	COc1cc([C@@H](C)N[C@H]2CC[C@@H](c3ccc(OCC(=O)N4CCNCC4)cc3)C2)ccc1F [Compound 103, 2-[4-[(1R,3S)-3-[[(1R)-1-(4-Fluoro-3-methoxy-phenyl)ethyl]-amino]-cyclopentyl]phenoxy]-1-piperazin-1-yl-ethanone]
A (A: Eh < 33%)	B (B: 33% ≦ Eh ≦ 75%)	COc1cc([C@@H](C)N[C@H]2CC[C@@H](c3ccc(OCC(=O)NCCNS(C)(=O)=O)cc3)C2)ccc1F [Compound 108, 2-[4-[(1R,3S)-3-[[(1R)-1-(4-Fluoro-3-methoxy-phenyl)ethyl]-amino]-cyclopentyl]phenoxy]-N-[2-(methanesulfonamido)ethyl]acetamide]
A (A: Eh < 33%)	A (A: Eh < 33%)	COc1cc([C@@H](C)N[C@H]2CC[C@@H](c3ccc(OCC(=O)NCCS(N)(=O)=O)cc3)C2)ccc1F [Compound 104, 2-[4-[(1R,3S)-3-[[(1R)-1-(4-Fluoro-3-methoxy-phenyl)ethyl]-amino]-cyclopentyl]phenoxy]-N-(2-sulfamoylethyl)acetamide]
A (A: Eh < 33%)	B (B: 33% ≦ Eh ≦ 75%)	COc1cc([C@@H](C)N[C@H]2CC[C@@H](c3ccc(OCC(=O)N4CCN(C(C)=O)CC4)cc3)C2)ccc1F [Compound 109, 1-(4-Acetylpiperazin-1-yl)-2-[4-[(1R,3S)-3-[[(1R)-1-(4-fluoro-3-methoxy-phenyl)ethyl]amino]cyclopentyl]phenoxy]ethanone]
A (A: Eh < 33%)	B (B: 33% ≦ Eh ≦ 75%)	COc1cc([C@@H](C)N[C@H]2CC[C@@H](c3ccc(OCC(=O)NCCNCCO)cc3)C2)ccc1F [Compound 106, 2-[4-[(1R,3S)-3-[[(1R)-1-(4-Fluoro-3-methoxy-phenyl)ethyl]-amino]-cyclopentyl]phenoxy]-N-[2-(2-hydroxyethylamino)ethyl]acetamide]
B (B: 33% ≦ Eh ≦ 75%)	B (B: 33% ≦ Eh ≦ 75%)	COc1cc([C@@H](C)N[C@H]2CC[C@@H](c3ccc(OCC(=O)N4CCN(S(N)(=O)=O)CC4)cc3)C2)ccc1F [Compound 110, 4-[2-[4-[(1R,3S)-3-[[(1R)-1-(4-Fluoro-3-methoxy-phenyl)-ethyl]-amino]cyclopentyl]phenoxy]acetyl]piperazine-1-sulfonamide]
A (A: Eh < 33%)	B (B: 33% ≦ Eh ≦ 75%)	C[C@@H](N[C@H]1CC[C@@H](c2ccc(OCC(=O)NC3CCNCC3)cc2)C1)c1cccc2ccccc12 [Compound 112, 2-[4-[(1R,3S)-3-[[(1R)-1-(1-Naphthyl)ethyl]amino]cyclopentyl]-phenoxy]-N-(4-piperidyl)acetamide]
